Legend:
[1] = target: T1, human 5-HT1A receptors (Homo sapiens, UniProt P08908); test: Displacement of [3H] 8-OHDPAT from 5-HT1A receptor, CHO cells stably transfected with human 5-HT1A receptors; type: binding; conditions: CHO cells with human 5-HT1A receptors, read-out: 5-HT1A Receptor Affinity KI
T1 construct: expressed in transfected cells; host or cells: CHO cells
T1 sequence (P08908 1-422): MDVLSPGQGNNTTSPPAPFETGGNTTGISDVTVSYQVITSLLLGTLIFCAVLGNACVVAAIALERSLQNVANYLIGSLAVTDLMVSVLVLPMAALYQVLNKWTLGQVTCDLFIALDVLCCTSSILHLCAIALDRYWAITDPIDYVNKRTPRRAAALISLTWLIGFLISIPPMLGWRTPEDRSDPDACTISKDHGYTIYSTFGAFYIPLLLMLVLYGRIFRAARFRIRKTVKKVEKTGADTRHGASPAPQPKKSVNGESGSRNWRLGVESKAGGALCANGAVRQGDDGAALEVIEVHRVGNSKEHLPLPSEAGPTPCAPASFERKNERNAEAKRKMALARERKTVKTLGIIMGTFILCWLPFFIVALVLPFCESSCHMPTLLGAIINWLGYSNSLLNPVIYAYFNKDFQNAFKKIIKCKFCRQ
Excerpt: High affinity for the serotonin 5-HT1A receptor was established by testing the claimed compound's ability to displace [^3H] 8-OHDPAT (dipropylaminotetralin) from the 5-HT1A serotonin receptor following a modification of the procedure of Hall et al., J. Neurochem. 44, 1685 (1985) which utilizes CHO cells stably transfected with human 5-HT1A receptors.

[2] = target: T2, serotonin transporter (Rattus norvegicus, UniProt P31652); test: Displacement of 3H-paroxetine from male rat frontal cortical membranes (serotonin transporter affinity); type: binding; conditions: read-out: 5-HT Transporter Affinity KI
T2 construct: displace ^3H-paroxetine from male rat frontal cortical membranes; from tissue; host or cells: male rat frontal cortex membranes

[3] = target: T3, cloned human 5HT1A receptors (Homo sapiens, UniProt P08908); test: 35S-GTPγS binding assay, membranes containing cloned human 5HT1A receptors; type: biochemical; conditions: for IC50: antagonist potency, reversal of the effects of the standard agonist 8-OHDPAT, read-out: 5-HT1A Function IC50; for Emax: read-out: 5-HT1A Function (Imax)
T3 construct: expressed in transfected cells
T3 sequence (P08908 1-422): T1 sequence (P08908 1-422)
Protocol: Antagonist activity at 5-HT1A receptors was established by using a ^35S-GTPγS binding assay similar to that used by Lazareno and Birdsall (Br. J. Pharmacol. 109: 1120, 1993), in which the test compound's ability to affect the binding of ^35S-GTPγS to membranes containing cloned human 5HT1A receptors was determined. Agonists produce an increase in binding whereas antagonists produce no increase but rather reverse the effects of the standard agonist 8-OHDPAT. The test compound's maximum inhibitory effect is represented as the Imax, while its potency is defined by the IC50.

T2 sequence (P31652 whole entry): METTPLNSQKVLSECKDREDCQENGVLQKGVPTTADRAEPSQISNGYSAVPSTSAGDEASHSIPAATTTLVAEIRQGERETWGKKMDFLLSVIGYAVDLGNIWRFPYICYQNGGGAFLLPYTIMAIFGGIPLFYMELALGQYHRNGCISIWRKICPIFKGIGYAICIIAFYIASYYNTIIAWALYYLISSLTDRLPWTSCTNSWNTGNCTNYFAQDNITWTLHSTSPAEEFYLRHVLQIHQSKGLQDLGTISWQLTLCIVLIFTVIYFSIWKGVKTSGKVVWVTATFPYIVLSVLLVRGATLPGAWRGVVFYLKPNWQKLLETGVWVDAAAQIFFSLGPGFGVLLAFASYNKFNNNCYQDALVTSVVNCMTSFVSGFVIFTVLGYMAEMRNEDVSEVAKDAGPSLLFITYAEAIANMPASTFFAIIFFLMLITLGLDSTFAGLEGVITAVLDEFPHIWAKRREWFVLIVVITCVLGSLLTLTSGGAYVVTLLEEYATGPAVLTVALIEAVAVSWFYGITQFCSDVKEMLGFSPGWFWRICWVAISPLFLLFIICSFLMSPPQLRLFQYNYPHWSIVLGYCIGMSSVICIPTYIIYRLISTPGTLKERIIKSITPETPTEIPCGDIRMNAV

| Ki [1] [nM] | Ki [2] [nM] | IC50 [3] [nM] | Emax ([3]; maximum inhibitory effect) [%] | 5-HT1A Function (Imax) ([3]; maximum inhibitory effect) [%] | SMILES |
| --- | --- | --- | --- | --- | --- |
| 0.05 | 6.7 | 31.4 | 85.6 | – | Cc1ccc2c3c(ccc2n1)OCC(CNCCCn1ccc2c(F)cccc21)O3 (centres unmarked) [Example 46, [3-(4-Fluoro-indol-1-yl)-propyl]-(8-methyl-2,3-dihydro-[1,4]dioxino[2,3-f]quinolin-2-ylmethyl)-amine] |
| 0.29 | 8.1 | 193 | 100 | – | Cc1ccc2c3c(ccc2n1)OCC(CN(C)CCCn1ccc2ccc(F)cc21)O3 (centres unmarked) [Example 34, [3-(6-Fluoro-indol-1-yl)-propyl]-methyl-(8-methyl-2,3-dihydro-[1,4]dioxino[2,3-f]quinolin-2-ylmethyl)-amine] |
| 0.45 | 9.7 | 69 | 50 | – | Cc1ccc2c3c(ccc2n1)OC[C@H](CNCCCc1csc2ccc(Cl)cc12)O3 [Example 50] |
| 0.35 | 6.6 | 10.4 | 59.3 | – | Cc1ccc2c3c(ccc2n1)OC[C@H](CNCCCc1coc2ccccc12)O3 [Example 18] |
| 0.39 | 3.57 | 31.3 | 86.6 | – | Cc1ccc2c3c(ccc2n1)OCC(CNCCCc1c[nH]c2ccccc12)O3 (centres unmarked) [Example 6, N-[3-(1H-Indol-3-yl)propyl]-N-(8-methyl-2,3-dihydro-[1,4]dioxino[2,3-f]quinolin-2-ylmethyl)amine] |
| 9.99 | 3.4 | 372 | 100 | – | Cc1ccc2c3c(ccc2n1)OCC(CN(C)CCCCc1cn(C)c2ccc(F)cc12)O3 (centres unmarked) [Example 44, [4-(5-Fluoro-1-methyl-1H-indol-3-yl)-butyl]-methyl-(8-methyl-2,3-dihydro-[1,4]dioxino[2,3-f]quinolin-2-ylmethyl)-amine] |
| 1.64 | 0.9 | 55.8 | 94 | – | Cc1ccc2c3c(ccc2n1)OCC(CNCCCc1c[nH]c2ccc(C#N)cc12)O3 (centres unmarked) [Example 29, 3-{3-[(8-Methyl-2,3-dihydro-[1,4]dioxino[2,3-f]quinolin-2-ylmethyl)-amino]-propyl}-1H-indole-5-carbonitrile] |
| 16.3 | 1.9 | 486 | 91.9 | – | CCN(CCCc1c[nH]c2ccc(F)cc12)C[C@H]1COc2ccc3nc(C)oc3c2O1 [Example 36, Ethyl-[3-(5-fluoro-1H-indol-3-yl)-propyl]-(2-methyl-7,8-dihydro-[1,4]dioxino[2,3-g][1,3]benzoxazol-8-ylmethyl)-amine] |
| 0.2 | 14.6 | 50.1 | 95.4 | – | COc1cccc2c(CCCNCC3COc4ccc5nc(C)ccc5c4O3)coc12 (centres unmarked) [Example 19, N-[3-(7-Methoxy-1-benzofuran-3-yl)propyl]-N-(8-methyl-2,3-dihydro-[1,4]dioxino[2,3-f]quinolin-2-ylmethyl)amine] |
| 0.22 | 2.07 | 25.8 | 94.1 | – | Cc1ccc2c3c(ccc2n1)OCC(CNCCCc1c[nH]c2c(F)cccc12)O3 (centres unmarked) [Example 8, N-[3-(7-Fluoro-1H-indol-3-yl)propyl]-N-(8-methyl-2,3-dihydro-[1,4]dioxino[2,3-f]quinolin-2-ylmethyl)amine] |
| 3.26 | 5.9 | 180 | 90.2 | – | Cc1ccc2c3c(ccc2n1)OCC(CNCCCc1cn(C)c2c(F)cc(F)cc12)O3 (centres unmarked) [Example 26, N-[3-(5,7-Difluoro-1-methyl-1H-indol-3-yl)propyl]-N-(8-methyl-2,3-dihydro-[1,4]dioxino[2,3-f]quinolin-2-ylmethyl)amine] |
| 0.6 | 62 | 25.9 | 37.5 | – | Cc1ccc2c3c(ccc2n1)OCC(CNCCc1csc2ccccc12)O3 (centres unmarked) [Example 21, N-[2-(1-Benzothien-3-yl)ethyl]-N-(8-methyl-2,3-dihydro-[1,4]dioxino[2,3-f]quinolin-2-ylmethyl)amine] |
| 24.7 | 4.2 | 500 | 100 | – | Cc1ccc2c3c(ccc2n1)OC[C@H](CN(C)CCCn1ccc2c(F)cccc21)O3 [Example 48] |
| 1.12 | 2.6 | 21.4 | 100 | – | Cc1ccc2c3c(ccc2n1)OC[C@H](CNCCCc1cn(C)c2ccc(C#N)cc12)O3 [Example 37, 1-Methyl-3-{3-[(8-methyl-2,3-dihydro-[1,4]dioxino[2,3-f]quinolin-2-ylmethyl)-amino]-proyl}-1H-indole-5-carbonitrile] |
| 4.45 | 1.4 | 157 | 100 | – | Cc1nc2ccc3c(c2o1)OC(CN(C)CCCc1c[nH]c2ccc(F)cc12)CO3 (centres unmarked) [Example 24, N-[3-(5-Fluoro-1H-indol-3-yl)propyl]-N-methyl-N-(2-methyl-7,8-dihydro[1,4]dioxino[2,3-g][1,3]benzoxazol-8-ylmethyl)amine] |
| 1.55 | 13 | 138 | 81.6 | – | Cc1ccc2c3c(ccc2n1)OCC(CNCCCc1cn(C)c2ccc(F)cc12)O3 (centres unmarked) [Example 12, N-[3-(5-Fluoro-1-methyl-1H-indol-3-yl)propyl]-N-(8-methyl-2,3-dihydro-[1,4]dioxino[2,3-f]quinolin-2-ylmethyl)amine] |
| 17.7 | 7 | 1980 | 100 | – | Cc1ccc2c3c(ccc2n1)OCC(CN(C)CCCc1cn(C)c2ccc(C#N)cc12)O3 (centres unmarked) [Example 40, 1-Methyl-3-{3-[methyl-(8-methyl-2,3-dihydro-[1,4]dioxino[2,3-f]quinolin-2-ylmethyl)-amino]-propyl}-1H-indole-5-carbonitrile] |
| 0.32 | 1.05 | 64.6 | 95 | – | Cc1ccc2c3c(ccc2n1)OCC(CNCCCc1c[nH]c2c(F)cc(F)cc12)O3 (centres unmarked) [Example 13, N-[3-(5,7-Difluoro-1H-indol-3-yl)propyl]-N-(8-methyl-2,3-dihydro-[1,4]dioxino[2,3-f]quinolin-2-ylmethyl)amine] |
| 21.2 | 2.2 | 200 | 73.5 | – | Cc1ccc2c3c(ccc2n1)OCC(CNCCCn1ccc2ccc(F)cc21)O3 (centres unmarked) [Example 33, [3-(6-Fluoro-indol-1-yl)-propyl]-(8-methyl-2,3-dihydro-[1,4]dioxino[2,3-f]quinolin-2-ylmethyl)amine] |
| 1.68 | 1.62 | 27.8 | – | 78.3 | Cc1ccc2c3c(ccc2n1)OCC(CNC(C)CCc1c[nH]c2ccc(F)cc12)O3 (single isomer, unassigned; isomer a) [Example 11 Isomer A] |
| 5.47 | 0.6 | 43.5 | 94 | – | CCN(CCCc1c[nH]c2ccc(F)cc12)CC1COc2ccc3nc(C)ccc3c2O1 (centres unmarked) [Example 25, N-Ethyl-N-[3-(5-Fluoro-1H-indol-3-yl)propyl]-N-(8-methyl-2,3-dihydro-[1,4]dioxino[2,3-f]quinolin-2-ylmethyl)amine] |
| 0.06 | 1.31 | 25.8 | 85.5 | – | Cc1ccc2c3c(ccc2n1)OCC(CNCCCCn1ccc2ccc(F)cc21)O3 (centres unmarked) [Example 38, [4-(6-Fluoro-indol-1-yl)-butyl]-(8-methyl-2,3-dihydro-[1,4]dioxino[2,3-f]quinolin-2-ylmethyl)-amine] |
| 2.03 | 31 | 88.6 | 80.3 | – | COc1ccc2[nH]cc(CCNCC3COc4ccc5nc(C)ccc5c4O3)c2c1 (centres unmarked) [Example 1] |
| 13.1 | 0.5 | 344 | 100 | – | Cc1ccc2c3c(ccc2n1)OCC(CN(C)CCCCc1c[nH]c2ccc(F)cc12)O3 (centres unmarked) [Example 43, [4-(5-Fluoro-1H-indol-3-yl)-butyl]-methyl-(8-methyl-2,3-dihydro-[1,4]dioxino[2,3-f]quinolin-2-ylmethyl}-amine] |
| 7.12 | 4.3 | 878 | 85.5 | – | Cc1ccc2c3c(ccc2n1)OC[C@H](CN(C)CCCc1csc2ccccc12)O3 [Example 22, N-[3-(1-Benzothien-3-yl)propyl]-N-methyl-N-(8-mthyl-2,3-dihydro-[1,4]dioxino[2,3-f]quinolin-2-ylmthyl)amin] |
| 5.16 | 1.6 | 412 | 100 | – | CN(CCCc1c[nH]c2ccc(F)cc12)CC1COc2ccc3ncccc3c2O1 (centres unmarked) [Example 15, N-(2,3-Dihydro-[1,4]dioxino[2,3-f]quinolin-2-ylmethyl)-N-[3-(5-fluoro-1H-indol-3-yl)propyl]-N-methylamine] |

Source: patent US6800637B2, “Antidepressant indolealkyl derivatives of heterocycle-fused benzodioxan methylamines” (Wyeth, priority 2002, dated 2004)
